Experimental data taken from US10364234B2, “Pyridinecarboxamide derivatives, preparation method thereof and pharmaceutical uses thereof” (Jiangsu Hengrui Medicine Co., Ltd., priority 2014, dated 2019).

Experiments:
SD rats = assay: Diuretic efficacy of ROMK inhibitors in SD rats; type: in vivo, rat; details: for urinary sodium excretion increase compared with blank control group / urinary potassium compared with normal control group: 4 h; for urine output increase compared with blank control group: total urine in 4 h; for urinary potassium compared with normal control group / serum potassium change / serum sodium change: 0.03 and 0.1 mg/kg i.g. once; for serum potassium change / serum sodium change: P>0.05
Method: The diuretic efficacy of compound 1 and positive control drug of ROMK inhibitor on SD rats was evaluated.
Male SD rats were purchased from SINO-BRITSH SIPPR/BK LAB. ANIMAL LTD., CO (Shanghai, China, Certificate No. 2008001647752, License SCXK (Shanghai) 2013-0016). The rats were 120-130 g, and fed at 5/cage, in a 12/12 hours light/dark cycle regulation, at a constant temperature of 23±1° C., humidity of 50˜60%, and free access to water and food. The male SD rats were acclimated to this condition for 7 days before their use in the diuresis experiment.
The experiment was carried out according to the method disclosed in PCT Patent Application Publication WO2010129379A1 After adaptive feeding, the rats were placed in metabolism cages and fasted overnight. The rats were weighed and randomly divided into the following groups: blank control group, compound 1 tested drug 0.03 mg/kg group and 0.1 mg/kg group, and the positive control group 0.03 mg/kg and group 0.1 mg/kg, with 10 rats for each group. Each rat was intragastrically administered each compound (ig, 1 ml/kg). The rats in the blank control group were fed with the corresponding solvent. After intragastric administration, the rats were placed in the normal cage. After 30 min, 25 ml/kg normal saline was given. Rats were put into the metabolic cages, and fasting for food and water began immediately. The total urine volume in 4 h was collected and measured. The urinary sodium and urinary potassium excretion in 4 h were also measured. The orbital serum was collected after the collection of urine to test the serum sodium and serum potassium concentrations.
The experimental data were expressed as mean±standard deviation (S.D.). The data was statistically compared using the t test of excel.

[1] = Solubility observed when preparing the dosing formulation; type: physicochemical; details: preparation of dosing formulation for the diuresis experiment
Text: In this experiment, the solubility of the test compound 1 was very good. There was no delamination phenomenon. […] After fully grinding, the solubility improved. […] Moreover, the effect was dose-dependent for each dose of the test compound 1 and the positive control drug.

rat ROMK channel = rat ROMK channel (Rattus norvegicus (Rat), UniProt P35560); assay: FluxOR potassium ion channel assay, rat ROMK/HEK293 cells; type: cell-based
Chain of rat ROMK channel (P35560 whole entry): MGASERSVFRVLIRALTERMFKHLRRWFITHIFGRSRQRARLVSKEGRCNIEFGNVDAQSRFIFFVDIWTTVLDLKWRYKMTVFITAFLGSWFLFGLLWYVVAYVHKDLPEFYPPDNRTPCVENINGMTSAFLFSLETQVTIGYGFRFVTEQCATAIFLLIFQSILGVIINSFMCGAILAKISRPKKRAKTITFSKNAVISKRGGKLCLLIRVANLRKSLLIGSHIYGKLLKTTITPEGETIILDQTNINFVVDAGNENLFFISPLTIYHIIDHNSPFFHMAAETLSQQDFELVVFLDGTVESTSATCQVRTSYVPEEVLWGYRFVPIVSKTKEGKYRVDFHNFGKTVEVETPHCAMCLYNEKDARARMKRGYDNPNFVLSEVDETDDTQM
Text: (§1) The method described hereafter was used for determining the inhibitory activity of the present compounds on human ROMK and rat ROMK channels.
(5) Rat ROMK/HEK293 cell: HEK293 cell line transfected by rat ROMK cDNA (NCBI SEQ ID NO. NM-017023.1) stably expressing the ROMK channel
The above procedures were repeated, except for replacing human ROMK/HEK293 cells with rat ROMK/HEK 293 cells, to determine the inhibition IC50 of the present compounds on rat ROMK channel.
(§2) The inhibitory activity of the present compounds on human ROMK or rat ROMK channel was tested by the assay described above.

[2] = Pharmacokinetics assay in SD rats, intragastric administration; type: in vivo; details: both sexes, Sprague-Dawley, rat, plasma, oral 5 mg/kg
Method: Rats were used as test animals. The drug concentration in plasma at different time points was determined by LC/MS/MS after administration of the compounds to rats. The pharmacokinetic behavior of the present compounds was studied and evaluated in rats.
Four (4) healthy adult Sprague-Dawley (SD) rats, half male and half female, were purchased from SINO-BRITSH SIPPR/BK LAB. ANIMAL LTD., CO, with Certificate No.: SCXK (Shanghai) 2008-0016.
The appropriate amount of the test compounds was weighed, and added with 0.5% CMC-Na to a final volume to prepare a 0.5 mg/mL suspension by ultrasonication.
Following fasting overnight, 4 SD rats, half male and half female were administered intragastrically a dose of 5.0 mg/kg and an administration volume of 10 mL/kg.
Blood (0.1 mL) was sampled from orbital sinus before administration and 0.5 h, 1.0 h, 2.0 h, 4.0 h, 6.0 h, 8.0 h, 11.0 h, and 24.0 h after administration. The samples were stored in EDTA anticoagulation tubes, and centrifuged for 10 minutes at 3,500 rpm to separate the blood plasma. The plasma samples were stored at −20° C. The rats were fed 2 hours after administration.
The plasma concentration of the test compounds in rats after intragastric administration was determined by LC-MS/MS. Plasma samples were analyzed after pretreatment by protein precipitation.

human ROMK channel = human ROMK channel (Homo sapiens (Human), UniProt P48048); assay: FluxOR potassium ion channel assay, human ROMK/HEK293 cells; type: cell-based
Chain of human ROMK channel (P48048 whole entry): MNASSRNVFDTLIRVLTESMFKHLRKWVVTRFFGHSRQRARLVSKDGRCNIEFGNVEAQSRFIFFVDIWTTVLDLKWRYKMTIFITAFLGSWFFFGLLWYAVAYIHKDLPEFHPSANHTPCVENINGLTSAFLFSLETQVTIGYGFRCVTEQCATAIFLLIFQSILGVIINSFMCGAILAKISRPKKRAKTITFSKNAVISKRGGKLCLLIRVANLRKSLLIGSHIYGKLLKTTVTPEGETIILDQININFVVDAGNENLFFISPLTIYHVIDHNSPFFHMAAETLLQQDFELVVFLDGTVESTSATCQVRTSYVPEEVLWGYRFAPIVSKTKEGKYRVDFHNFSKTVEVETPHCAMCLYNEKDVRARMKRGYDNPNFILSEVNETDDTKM
Method: as §1
(1) FluxOR™ potassium ion channel assay (F10016, Invitrogen)
(3) FlexStation3 microplate reader (Molecular Devices)
(4) Human ROMK/HEK293 cell: HEK293 cell line stably expressing the ROMK channel transfected by human ROMK cDNA (NCBI SEQ ID NO. NM-000220.4)
as §2

ROMK potassium channel = ROMK potassium channel (Homo sapiens (Human), UniProt P48048); assay: Electrophysiological manual patch clamp on ROMK potassium channel (human ROMK/HEK293 cells); type: cell-based
Chain of ROMK potassium channel (P48048 whole entry): as above
Text: The experiment was designed to test the effect of compounds on ROMK potassium channel in HEK 293 in vitro. ROMK potassium channel is stably expressed on the HEK293 cells of the present application. After the potassium ion current was stabilized, the effect of the present compound on the potassium channel was obtained by comparing the potassium current obtained before and after the use of the present compound at different concentrations.
(2) Human ROMK/HEK293 cell: HEK293 cell line stably expressing the ROMK channel transfected by human ROMK cDNA (NCBI SEQ ID NO. NM-000220.4);
(3) Extracellular fluid (mM): NaCl, 137; KCl, 4; CaCl2, 1.8; MgCl2, 1; HEPES, 10; glucose, 10; pH 7.4 (NaOH titration); and
(4) Intracellular fluid (mM): K Aspartate, 130; MgCl2, 5; EGTA 5; HEPES, 10; Tris-ATP, 4; pH 7.2 (KOH titration).
Test compounds were dissolved in dimethyl sulfoxide (DMSO) and then stocked at room temperature. […]
A manual patch clamp system was used for whole-cell current record in this experiment. […] After the ROMK potassium current recorded in the above steps was stabilized under continuous perfusion with extracellular liquid in the recording bath, the drug to be tested was perfused until the inhibition of the drug on the ROMK current reached a steady state. […]
The data were analyzed by HEKA Patchmaster, XLFit and Graphpad Prism data analysis software.

Structure (SMILES)	urinary sodium excretion increase compared with blank control group (SD rats; 0.03 mg/kg i.g. once) [times]	urine output increase compared with blank control group (SD rats; 0.03 mg/kg i.g. once) [times]	urinary sodium excretion increase compared with blank control group (SD rats; 0.1 mg/kg i.g. once) [times]	urine output increase compared with blank control group (SD rats; 0.1 mg/kg i.g. once) [times]	urinary potassium compared with normal control group (SD rats)	serum potassium change (SD rats)	serum sodium change (SD rats)	solubility (in words) [1]	IC50 (rat ROMK channel) [nM]	Vd/F ([2]; read-out: Apparent Distribution Volume Vz/F) [L/kg]	AUC ([2]; read-out: Area Under Curve AUC) [ng·h/mL]	CL/F ([2]; read-out: Clearance CLz/F) [mL/min/kg]	MRT ([2]; read-out: Mean Residence Time MRT) [h]	Cmax ([2]; read-out: Plasma Conc. Cmax) [ng/mL]	IC50 (human ROMK channel) [nM]	IC50 (ROMK potassium channel) [nM]
COc1cc(C(=O)NC2CCN(C[C@H](O)c3ccc4c(c3C)COC4=O)CC2)ncc1C#N [Example 1, (R)-5-cyano-N-(1-(2-hydroxy-2-(4-methyl-1-oxo-1,3-dihydroisobenzofuran-5-yl)ethyl)piperidin-4-yl)-4-methoxypicolinamide]	3.12	2.76	3.31	3.22	slightly elevated, but not statistically significant	changed a little	changed a little	very good	192	3.02 ± 0.841	9280 ± 3050	9.82 ± 3.5	5.51 ± 0.75	1330 ± 388	40	18.7
CCOc1cc(C(=O)NC2CCN(C[C@H](O)c3ccc4c(c3C)COC4=O)CC2)ncc1C#N [Example 2, (R)-5-cyano-4-ethoxy-N-(1-(2-hydroxy-2-(4-methyl-1-oxo-1,3-dihydroisobenzofuran-5-yl)ethyl)piperidin-4-yl)picolinamide]									89						28	
Cc1cc(C(=O)NC2CCN(C[C@H](O)c3ccc4c(c3C)COC4=O)CC2)ncc1C#N [positive control drug, reference compound]	1.57	1.41	1.65	1.46	slightly elevated, but not statistically significant	changed a little	changed a little	poor solubility								
